Values of other authors, collected in patent US20080103199A1, “TREATMENT OF PERVASIVE DEVELOPMENTAL DISORDERS” (priority 2006, published 2008).

Columns and labels:
[1] = test system: submissive rats; settings: treatment of the submissive subject, 3 weeks; literature (Malatynska 2002); cited from earlier work
[2] = test system: dominant rats; settings: administered to dominant rats; literature (Malatynska 2002); cited from earlier work

Structure (SMILES)	Effect on submissive behavior [1]	Effect on competitive behavior of dominant rats [2]
CNCCCN1c2ccccc2CCc2ccccc21 [desipramine]	reduced submissive behavior	–
CN1C(=O)CN=C(c2ccccc2)c2cc(Cl)ccc21 [diazepam]	ineffective	–
CNCCC(Oc1ccc(C(F)(F)F)cc1)c1ccccc1 (centres unmarked) [fluoxetine]	reduced submissive behavior	–
CN(C)CCCN1c2ccccc2CCc2ccccc21 [imipramine]	reduced submissive behavior	–
CCCC(CCC)C(=O)[O-].[Na+] [sodium valproate]	–	significantly reduced competitive behavior
